Read-outs that look alike come from different tables or passages of the source.
How the values were obtained:
[1] = NMRD profiles, field-dependent T1 relaxivity, field cycling NMR relaxometer 0 to 1 T; assay type: physicochemical; settings: for T1 relaxivity per Mn(III) or Gd(III), NMRD comparison: fields above ~0.2 T, compared among MnTPPS, MnTCP, (MnTPPS3)2 and Gd-DTPA
Description: T1 relaxivity values were measured per Mn(III) or Gd(III) up to 1 T.

[2] = T1 and T2 relaxivities and phantom images at 3 T on clinical MRI scanner; assay type: physicochemical; settings: for r1 (T1 relaxivity): clinical MRI scanner, inversion-recovery spin-echo, 25° C. per FIG. 3
Description: (A) A schematic diagram of how the solutions are placed. (B) The corresponding phantom images produced by the 3 T scanner.
Relaxivities of MnPs at 3 T were measured on a clinical MRI scanner (Philips Achieva). Each of the four CAs were prepared in a series of increasing concentrations, 0, 0.05, 0.1, 0.2 and 0.5 mM, and imaged using an inversion-recovery spin-echo pulse sequence with varied inversion times TI and a multi-echo spin-echo sequence with varied echo times TE. […] The r1 values in Table 1 were derived by calculating T1 relaxation times from the inversion-recovery images and then linearly fitting the T1 relaxation rates to obtain the relaxivity r1. T2 relaxivities of the MnPs were also calculated and are listed in […]

[3] = In vivo T1-weighted MRI in rats on 3T clinical scanner after intravenous injection; settings: 0.05 mmol Mn/kg i.v.
Excerpt: (§1) MnPs MnTCP and (MnTPPS3)2 were administrated in rats and submitted for MRI studies on a 3T clinical scanner (Philips Achieva), with MnTPPS as a reference, and found to be efficient T1 CAs for in vivo applications, MnTCP and (MnTPPS3)2. A relatively low dose, 0.05 mmol Mn/kg (typical dose for clinical Gd-based CAs is ˜0.1 mmol Gd/kg) was chosen based on the in vitro relaxivity values described above.
(§2) The desired rapid clearance of MnTCP via renal filtration was further confirmed by urine sample analysis. The characteristic reddish color of MnPs was clearly visible by eye in the urine samples. The concentrations of MnPs can be accurately quantified by both UV-vis and Mn atomic absorption (Mn AA) spectroscopic analyses. Very high concentrations of MnP were detected in urine 60 minutes (11.7 μM) after injection. […] Moreover, a significant amount of MnTPPS (1.12 μM) could still be detected in urine 24 hours post-injection. […] The exclusion of the renal metabolic pathway for (MnTPPS3)2 was further confirmed by urine sample analysis.

[4] = Urine sample analysis by UV-vis and Mn atomic absorption after injection in rats; assay type: in vivo; settings: 0.05 mmol Mn/kg i.v.
Excerpt: as §1, §2

[5] = 37° C., cited from earlier work

time for relocation of majority of kidney enhancement into the bladder ([3]; 3 T MRI)	time to accumulation in the kidney ([3]; post injection, 3 T MRI) [min]	concentration in urine ([4]; 60 minutes after injection) [µM]	presence in urine sample ([4]; about 24 h post injection)	concentration in urine ([4]; 24 hours post-injection) [µM]	Molecule	field of relaxivity peak ([1]; NMRD profile) [T]	T1 relaxivity per Mn(III) or Gd(III), NMRD comparison [1]	signal intensity on T1 weighted phantom images ([2]; 25° C., samples at the same concentration)	r1 (T1 relaxivity) [2] [mM⁻¹ s⁻¹]	enhancement in the blood vessels and in the heart ([3]; 3 T MRI)	liver enhancement ([3]; 3 T MRI)	bladder enhancement ([3]; over the three days of the experimental period)	MnP signal in urine by Mn-AA or UV-vis ([4]; over the 72 hour post-injection period)	T1 relaxivity, NMRD comparison ([1]; at clinical field strengths)	relaxivity compared with Gd-DTPA [2]	persistence of kidney T1 enhancement signal ([3]; 3 T MRI)	relaxivity plateau ([5]; up to 1 T) [mM⁻¹ s⁻¹]	field of relaxivity peak [5] [T]
					O=S(=O)([O-])c1ccc(C2=C3C=CC4=[N+]3[Mn]35[n]6c2ccc6C(c2ccc(S(=O)(=O)[O-])cc2)=C2C=CC(=[N+]23)C(c2ccc(S(=O)(=O)[O-])cc2)=c2ccc([n]25)=C4c2ccc(-c3ccc(C4=C5C=CC6=[N+]5[Mn]57[n]8c4ccc8C(c4ccc(S(=O)(=O)[O-])cc4)=C4C=CC(=[N+]45)C(c4ccc(S(=O)(=O)[O-])cc4)=c4ccc([n]47)=C6c4ccc(S(=O)(=O)[O-])cc4)cc3)cc2)cc1 (centres unmarked) [(MnTPPS3)2]	~1	highest relaxivity per Mn	highest signal intensity	14.1	relatively long-lasting enhancement	significant liver enhancement	no bladder enhancement was detected	No MnP signal was found					
within an hour	≤ 10	11.7	Absence		O=C(O)c1c2nc(c(C(=O)O)c3ccc([n-]3)c(C(=O)O)c3nc(c(C(=O)O)c4ccc1[n-]4)C=C3)C=C2.[Cl-].[Mn+3] [MnTCP, [5,10,15,20-tetrakis(carboxy)porphyrinato]manganese(III) Chloride]		substantially higher than Gd-DTPA		7.90					lower relaxivity than MnTPPS	significantly higher relaxivity than Gd-DTPA			
		4.41		1.12	MnTPPS [reference compound]				8.83		clear liver enhancement					still visible in the image 1 day post-injection	> 10	0.2

Reference: patent US10646595B2, “Porphyrin compounds and their use as MRI contrast agents” (THE GOVERNING COUNCIL OF THE UNIVERSITY OF TORONTO, priority 2013, dated 2020)
